Assay results from US7994163B2, “6-substituted-2,3,4,5-tetrahydro-1H-benzo[d]azepines as 5-HT2C receptor agonists” (Eli Lilly and Company, priority 2005, dated 2011).
Structures can show the parent of a compound that is named as a salt.

Key:
[1] = tested on: Wistar rats; settings: general statement on standards; cited from earlier work
[2] = tested on: male NIH Swiss mice; experiment: Marble burying assay (with rotorod); format: in vivo; settings: with rotorod performance
Experimental: House experimentally-naïve male, NIH Swiss mice (Harlan Sprague-Dawley, Indianapolis, Ind.) weighing between 28-35 g in groups of 12 for at least three days prior to testing in a vivarium with 12 h light and dark cycles. Conduct experiments during the light cycle in a dimly lit experimental testing room. Dose mice with vehicle or test compound and, after a specified pretreatment interval (generally 30 min.), place each mouse individually on a rotorod (Ugo Basile 7650) operating at a speed of 6 revolutions/min. and observe for falling. After 2 min. on the rotorod, place the mice individually in a 17×28×12 cm high plastic tub with 5 mm sawdust shavings on the floor that are covered with 20 blue marbles (1.5 cm diameter) placed in the center. After 30 min., count the number of marbles buried (⅔ covered with sawdust). Assess the test compound's effect on marble burying with Dunnett's test and the effect on rotorod performance by Fisher's exact test.
Clinically effective standard compounds suppress marble burying at doses that are devoid of motor-impairing effects as measured on the rotorod. The in vivo efficacy of 5HT2C compounds at the 5HT2C receptor is confirmed by the prevention of effects of the 5HT2C agonists on marble burying by co-administration of the 5HT2C receptor antagonist, 6-chloro-5-methyl-N-{2-[(2-methylpyridin-3-yl-oxy)pyridin-5-yl]aminocarbonyl}-2,3-dihydroindole.

[3] = tested on: Wistar rats; experiment: Schedule-induced polydipsia; settings: rat, in vivo
Experimental: Maintain Wistar rats on a food restricted diet (to maintain 85% free feeding weight), but with free access to water. Train the rats in a behavioral testing chamber to press a lever to receive a food pellet under a fixed interval schedule, such that the rats are rewarded with a 45 mg food pellet the first time they press a lever after a 120 second interval has elapsed. The fixed interval is then reset to 120 seconds and the process repeated. Thus, during a 90 min. test session, the rats can earn a maximum of 45 pellets. The behavioral chamber is also equipped with a water bottle that is weighed before and after the session to determine the amount of water consumed.
Administer test compounds on Tuesdays and Fridays. Determine control day performances on Thursdays. Administer compounds either orally at 60 min. before the beginning of a test session, or subcutaneously at 20 min. before the beginning of a test session. Compare the rates of lever pressing and water consumption for each animal's performance during sessions after test compound treatment with that animal's performance during control sessions, expressed as a percent of the control rate. Average the individual percent of control rates for each dose and calculate the standard error of the mean. […]

[4] = tested on: male NIH Swiss mice; experiment: Nestlet shredding; format: in vivo; settings: with motor effects (rotorod test)
Excerpt: Mice naturally will construct nests of material available in their living environment. Since this behavior is obsessive in nature, it has been used to model OCD (Xia Li, Denise Morrow and Jeffrey M. Witkin, “Decreases in nestlet shredding of mice by serotonin uptake inhibitors: comparison with marble burying”, Psychopharmacology, submitted Jul. 14, 2003). House experimentally-naïve male, NIH Swiss mice (Harlan Sprague-Dawley, Indianapolis, Ind.) weighing between 28-35 g in groups of 12 for at least three days prior to testing in a vivarium with a 12 h light/dark cycle. Conduct experiments during the light cycle in an experimental room with normal overhead fluorescent lighting. Dose mice with vehicle or test compound and after a specified pretreatment interval (generally 30 min.), place the mice individually in a 17×28×12 cm high plastic tub with about 5 mm sawdust shavings on the floor along with a pre-weighed multi-ply gauze pad (51 mm square). After 30 min., weigh the remainder of the gauze pad not removed by the mouse. Determine the weight of the gauze used for nestlet construction by subtraction. Compare the results for test compound treated mice to the results for vehicle control treated mice with Dunnett's test.
Clinically effective OCD treatment standard compounds suppress nestlet shredding at doses that are devoid of motor-impairing effects as measured by the rotorod test. […]

## Clc1ccc2c(c1CSc1ncc[nH]1)CCNCC2 (as salt: phosphate) (hydrate or solvate)
other
  melting point: 243 to 245 °C

## CN(C)CCCN1c2ccccc2CCc2ccc(Cl)cc21 [chlomipramine]
[1]
  schedule-induced polydipsia, clinically effective OCD treatment standard compounds: suppress schedule-induced polydipsia without producing notable changes in motor patterns, food intake, or behavior the following day

## CN(C)CCCN1c2ccccc2Sc2ccc(Cl)cc21 [chlorpromazine]
[2]
  marble burying behavior: decrease marble burying only at doses that also disrupt rotorod performance

## C[C@H](N)Cc1ccccc1 [d-amphetamine]
[3]
  Effect of 5-HT2C antagonist co-administration on suppression of polydipsia: not prevented by the 5HT2C receptor antagonist
  schedule-induced polydipsia (excessive drinking): decreases excessive drinking only at behaviorally stimulating doses
[4]
  nestlet shredding: decreases nestlet shredding only at doses that produce motoric side effects

## CNCCC(Oc1ccc(C(F)(F)F)cc1)c1ccccc1 (stereo not shown) [fluoxetine]
[1]
  schedule-induced polydipsia, clinically effective OCD treatment standard compounds: suppress schedule-induced polydipsia without producing notable changes in motor patterns, food intake, or behavior the following day
